Measured values published in ChEMBL document CHEMBL3124838, “Discovery of 6-aryl-azabenzimidazoles that inhibit the TBK1/IKK-ε kinases” (Bioorg Med Chem Lett, 2014).

How the values were obtained:
[1] = biological target: CDK2/Cyclin A2 (Homo sapiens) (UniProt P24941+P20248); experiment: Inhibition of human CDK2/cyclin A assessed as residual activity at 1 uM relative to control; type: protein-complex assay
[2] = biological target: Tyrosine-protein kinase Blk (Homo sapiens) (UniProt P51451); experiment: Inhibition of human BLK assessed as residual activity at 1 uM relative to control
[3] = biological target: T1, Serine/threonine-protein kinase 4 (Homo sapiens) (UniProt Q13043); experiment: Inhibition of human MST1 assessed as residual activity at 1 uM relative to control
T1 sequence (whole entry): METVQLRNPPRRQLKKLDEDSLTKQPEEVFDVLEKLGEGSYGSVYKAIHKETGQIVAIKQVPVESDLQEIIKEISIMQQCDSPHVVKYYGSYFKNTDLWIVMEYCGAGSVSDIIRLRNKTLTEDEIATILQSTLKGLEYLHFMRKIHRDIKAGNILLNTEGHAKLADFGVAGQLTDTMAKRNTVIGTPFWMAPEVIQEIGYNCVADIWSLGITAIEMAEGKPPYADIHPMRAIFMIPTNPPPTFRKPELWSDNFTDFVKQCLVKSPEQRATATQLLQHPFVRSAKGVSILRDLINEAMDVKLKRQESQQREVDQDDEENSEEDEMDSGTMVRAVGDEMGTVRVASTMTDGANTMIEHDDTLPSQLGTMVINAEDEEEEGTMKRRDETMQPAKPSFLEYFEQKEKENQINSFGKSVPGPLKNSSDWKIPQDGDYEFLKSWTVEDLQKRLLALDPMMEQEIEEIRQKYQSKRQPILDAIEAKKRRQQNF

[4] = biological target: Tyrosine-protein kinase Yes (Homo sapiens) (UniProt P07947); experiment: Inhibition of human YES assessed as residual activity at 1 uM relative to control
[5] = biological target: T2, Dual specificity mitogen-activated protein kinase kinase 7 (Homo sapiens) (UniProt O14733); experiment: Inhibition of human MKK7beta assessed as residual activity at 1 uM relative to control
T2 sequence (whole entry): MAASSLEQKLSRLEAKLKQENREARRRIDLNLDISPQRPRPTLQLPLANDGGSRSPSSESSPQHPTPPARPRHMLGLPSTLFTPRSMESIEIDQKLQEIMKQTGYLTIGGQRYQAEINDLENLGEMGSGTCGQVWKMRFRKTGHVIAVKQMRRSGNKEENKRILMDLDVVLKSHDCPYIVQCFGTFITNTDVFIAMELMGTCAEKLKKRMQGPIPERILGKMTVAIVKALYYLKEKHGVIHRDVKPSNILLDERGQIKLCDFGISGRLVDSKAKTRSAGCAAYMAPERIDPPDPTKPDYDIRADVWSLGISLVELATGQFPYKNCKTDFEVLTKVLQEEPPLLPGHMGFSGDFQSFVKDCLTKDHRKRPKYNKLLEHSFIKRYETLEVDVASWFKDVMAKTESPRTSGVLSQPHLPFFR

[6] = biological target: T3, Ephrin type-B receptor 4 (Homo sapiens) (UniProt P54760); experiment: Inhibition of human EPHB4 assessed as residual activity at 1 uM relative to control
T3 sequence (whole entry): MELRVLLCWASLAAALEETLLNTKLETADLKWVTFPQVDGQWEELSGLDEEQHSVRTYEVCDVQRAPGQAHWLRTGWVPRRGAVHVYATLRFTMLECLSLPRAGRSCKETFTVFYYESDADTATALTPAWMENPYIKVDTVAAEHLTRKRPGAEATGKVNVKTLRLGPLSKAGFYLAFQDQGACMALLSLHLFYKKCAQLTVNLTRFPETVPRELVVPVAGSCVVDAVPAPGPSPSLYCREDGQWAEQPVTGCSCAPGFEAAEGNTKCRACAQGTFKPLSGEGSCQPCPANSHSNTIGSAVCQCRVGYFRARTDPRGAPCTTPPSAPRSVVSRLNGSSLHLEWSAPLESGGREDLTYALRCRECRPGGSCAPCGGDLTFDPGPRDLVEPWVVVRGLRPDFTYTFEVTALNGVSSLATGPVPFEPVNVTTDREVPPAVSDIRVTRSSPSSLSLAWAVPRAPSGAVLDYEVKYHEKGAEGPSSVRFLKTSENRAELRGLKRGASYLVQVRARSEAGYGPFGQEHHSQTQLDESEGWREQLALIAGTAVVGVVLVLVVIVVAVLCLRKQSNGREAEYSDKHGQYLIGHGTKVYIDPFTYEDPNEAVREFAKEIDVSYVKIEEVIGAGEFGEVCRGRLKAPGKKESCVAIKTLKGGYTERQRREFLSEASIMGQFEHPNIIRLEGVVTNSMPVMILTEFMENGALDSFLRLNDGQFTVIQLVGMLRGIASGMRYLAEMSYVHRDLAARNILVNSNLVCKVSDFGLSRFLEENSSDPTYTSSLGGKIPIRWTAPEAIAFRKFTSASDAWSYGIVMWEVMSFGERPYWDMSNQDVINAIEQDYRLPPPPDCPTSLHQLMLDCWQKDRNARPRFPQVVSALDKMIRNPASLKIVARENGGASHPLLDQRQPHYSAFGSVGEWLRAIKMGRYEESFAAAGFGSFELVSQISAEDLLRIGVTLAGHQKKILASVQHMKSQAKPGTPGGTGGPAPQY

[7] = biological target: T4, Serine/threonine-protein kinase Nek2 (Homo sapiens) (UniProt P51955); experiment: Inhibition of human NEK2 assessed as residual activity at 1 uM relative to control
T4 sequence (whole entry): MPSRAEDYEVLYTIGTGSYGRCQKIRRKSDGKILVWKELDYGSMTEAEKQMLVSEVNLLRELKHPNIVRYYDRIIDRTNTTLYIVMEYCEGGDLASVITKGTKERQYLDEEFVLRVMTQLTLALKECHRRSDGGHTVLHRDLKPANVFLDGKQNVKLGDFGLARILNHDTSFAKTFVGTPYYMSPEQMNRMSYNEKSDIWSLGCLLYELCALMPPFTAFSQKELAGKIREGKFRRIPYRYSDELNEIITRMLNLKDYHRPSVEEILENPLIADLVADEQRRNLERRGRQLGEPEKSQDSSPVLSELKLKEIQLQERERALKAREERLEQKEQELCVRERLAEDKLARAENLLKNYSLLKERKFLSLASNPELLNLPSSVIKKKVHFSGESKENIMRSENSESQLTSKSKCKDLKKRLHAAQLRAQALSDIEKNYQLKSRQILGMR

[8] = biological target: Ribosomal protein S6 kinase beta-1 (Homo sapiens) (UniProt P23443); experiment: Inhibition of human p70S6K assessed as residual activity at 1 uM relative to control
[9] = biological target: Epidermal growth factor receptor (Homo sapiens) (UniProt P00533); experiment: Inhibition of human EGFR assessed as residual activity at 1 uM relative to control
Epidermal growth factor receptor (Homo sapiens), sequence (P00533 whole entry): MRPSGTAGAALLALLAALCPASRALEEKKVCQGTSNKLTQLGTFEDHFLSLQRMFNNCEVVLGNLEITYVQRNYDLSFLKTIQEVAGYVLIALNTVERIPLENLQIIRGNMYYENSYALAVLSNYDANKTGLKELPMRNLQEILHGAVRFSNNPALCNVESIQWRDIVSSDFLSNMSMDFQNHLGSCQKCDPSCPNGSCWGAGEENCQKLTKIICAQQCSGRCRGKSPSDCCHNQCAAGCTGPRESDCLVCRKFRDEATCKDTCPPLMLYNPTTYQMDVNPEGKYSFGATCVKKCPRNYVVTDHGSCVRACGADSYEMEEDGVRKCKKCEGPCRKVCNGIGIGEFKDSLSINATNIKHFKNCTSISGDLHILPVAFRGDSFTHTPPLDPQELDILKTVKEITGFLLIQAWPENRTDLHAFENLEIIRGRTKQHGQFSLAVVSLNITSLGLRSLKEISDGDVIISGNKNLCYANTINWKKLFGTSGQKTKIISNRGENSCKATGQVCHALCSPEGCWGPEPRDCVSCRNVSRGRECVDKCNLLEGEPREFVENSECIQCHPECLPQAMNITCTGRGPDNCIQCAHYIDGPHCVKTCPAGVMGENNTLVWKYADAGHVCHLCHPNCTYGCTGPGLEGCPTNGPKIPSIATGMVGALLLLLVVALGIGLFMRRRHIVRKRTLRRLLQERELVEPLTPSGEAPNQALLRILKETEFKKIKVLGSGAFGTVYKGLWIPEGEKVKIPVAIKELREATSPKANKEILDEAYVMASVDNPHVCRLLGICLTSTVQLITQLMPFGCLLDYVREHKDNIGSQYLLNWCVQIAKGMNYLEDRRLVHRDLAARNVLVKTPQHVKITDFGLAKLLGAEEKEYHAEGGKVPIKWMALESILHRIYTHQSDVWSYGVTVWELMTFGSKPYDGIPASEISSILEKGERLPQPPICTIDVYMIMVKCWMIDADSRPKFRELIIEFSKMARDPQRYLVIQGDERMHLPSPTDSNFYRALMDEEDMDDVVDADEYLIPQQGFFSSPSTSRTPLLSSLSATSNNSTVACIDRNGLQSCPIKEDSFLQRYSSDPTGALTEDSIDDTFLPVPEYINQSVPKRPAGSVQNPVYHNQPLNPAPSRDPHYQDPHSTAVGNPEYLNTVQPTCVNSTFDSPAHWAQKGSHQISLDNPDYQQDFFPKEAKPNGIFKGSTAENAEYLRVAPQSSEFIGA

Ribosomal protein S6 kinase beta-1 (Homo sapiens), sequence (P23443 whole entry, looked up): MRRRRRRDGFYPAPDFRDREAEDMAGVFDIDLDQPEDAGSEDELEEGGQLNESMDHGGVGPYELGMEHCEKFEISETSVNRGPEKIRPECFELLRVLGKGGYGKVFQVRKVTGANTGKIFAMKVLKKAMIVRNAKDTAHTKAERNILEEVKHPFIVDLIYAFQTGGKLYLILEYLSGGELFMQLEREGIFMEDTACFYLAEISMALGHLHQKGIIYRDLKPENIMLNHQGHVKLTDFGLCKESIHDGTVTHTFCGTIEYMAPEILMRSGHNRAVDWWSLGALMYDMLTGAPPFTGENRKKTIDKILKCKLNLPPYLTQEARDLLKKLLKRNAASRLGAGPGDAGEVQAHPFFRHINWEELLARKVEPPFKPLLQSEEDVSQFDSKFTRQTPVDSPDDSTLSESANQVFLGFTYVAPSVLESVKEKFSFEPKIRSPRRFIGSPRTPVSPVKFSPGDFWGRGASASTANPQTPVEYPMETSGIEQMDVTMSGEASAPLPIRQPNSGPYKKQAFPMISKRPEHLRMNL
Tyrosine-protein kinase Yes (Homo sapiens), sequence (P07947 2-543 limits assumed): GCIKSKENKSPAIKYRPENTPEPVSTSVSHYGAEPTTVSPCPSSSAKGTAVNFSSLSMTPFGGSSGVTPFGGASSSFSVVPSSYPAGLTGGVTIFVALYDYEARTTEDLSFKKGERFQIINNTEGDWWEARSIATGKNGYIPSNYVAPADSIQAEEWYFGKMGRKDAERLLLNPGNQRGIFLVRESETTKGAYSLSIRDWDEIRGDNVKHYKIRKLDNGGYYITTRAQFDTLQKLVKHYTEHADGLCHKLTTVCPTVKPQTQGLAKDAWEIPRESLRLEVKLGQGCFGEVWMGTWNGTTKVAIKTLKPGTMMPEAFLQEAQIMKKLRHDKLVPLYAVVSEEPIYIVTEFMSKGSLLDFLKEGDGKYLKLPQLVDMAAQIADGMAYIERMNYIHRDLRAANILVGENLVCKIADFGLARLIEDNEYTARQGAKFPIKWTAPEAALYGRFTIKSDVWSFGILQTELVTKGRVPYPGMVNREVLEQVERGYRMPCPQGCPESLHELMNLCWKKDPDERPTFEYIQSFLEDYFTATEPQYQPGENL
Tyrosine-protein kinase Blk (Homo sapiens), sequence (P51451 2-505 limits assumed): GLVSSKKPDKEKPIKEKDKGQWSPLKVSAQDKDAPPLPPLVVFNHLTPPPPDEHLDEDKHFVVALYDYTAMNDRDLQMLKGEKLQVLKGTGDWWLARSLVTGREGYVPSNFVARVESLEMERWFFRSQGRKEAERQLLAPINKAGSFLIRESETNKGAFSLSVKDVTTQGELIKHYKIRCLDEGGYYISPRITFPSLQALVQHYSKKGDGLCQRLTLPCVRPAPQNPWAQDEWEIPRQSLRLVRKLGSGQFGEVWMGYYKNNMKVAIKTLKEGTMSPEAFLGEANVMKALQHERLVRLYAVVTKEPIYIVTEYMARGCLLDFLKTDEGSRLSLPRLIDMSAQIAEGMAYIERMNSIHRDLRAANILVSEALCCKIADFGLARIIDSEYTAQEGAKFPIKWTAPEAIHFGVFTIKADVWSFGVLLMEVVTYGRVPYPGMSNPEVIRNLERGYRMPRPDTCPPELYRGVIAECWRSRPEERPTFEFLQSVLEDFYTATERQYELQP

## COc1ccc(-c2nc3cc(-c4csc(C(=O)NCC(C)(C)C)c4)cnc3[nH]2)cc1
[1]
  Activity: 98%
[2]
  Activity: 48%
[3]
  Activity: 122%
[4]
  Activity: 15%
[5]
  Activity: 88%
[6]
  Activity: 79%
[7]
  Activity: 111%
[8]
  Activity: 87%
[9]
  Activity: 97%

## COc1ccc(-c2nc3cc(-c4csc(C(=O)NCCC(C)C)c4)cnc3[nH]2)cc1
[1]
  Activity: 92%
[2]
  Activity: 13%
[3]
  Activity: 116%
[4]
  Activity: 5%
[5]
  Activity: 92%
[6]
  Activity: 95%
[7]
  Activity: 97%
[8]
  Activity: 80%
[9]
  Activity: 89%

## COc1ccc(-c2nc3cc(-c4csc(C(=O)NCC(C)C)c4)cnc3[nH]2)cc1
[1]
  Activity: 103%
[2]
  Activity: 25%
[3]
  Activity: 115%
[4]
  Activity: 6%
[5]
  Activity: 94%
[6]
  Activity: 74%
[7]
  Activity: 120%
[8]
  Activity: 84%
[9]
  Activity: 102%
